# What was measured:
# [1] = tested on: Staphylococcus aureus, strain ATCC 25923; conditions: ATCC 25923
# [2] = tested on: Propionibacterium acnes- antibiotic-resistant clinical isolate; conditions: P. acnes antibiotic-resistant
# [3] = tested on: Haemophilus influenzae β- lactamase negative ampicillin-resistant clinical isolate
# E. coli = conditions: Table 5
# [4] = tested on: Haemophilus influenzae - β -lactamase positive clinical isolate
# [5] = tested on: Methicillin resistant Staphylococcus aureus (MRSA) strain ATCC 33591; conditions: ATCC 33591
# [6] = tested on: Shigella sp - antibiotic-susceptible clinical isolate; test: MIC microbroth dilution (CLSI); type: cell-based
# Excerpt: (§1) Cation-adjusted Mueller-Hinton broth (Oxoid Ltd., Basingstoke, UK and Trek Diagnostic Systems Ltd., East Grinstead, UK) (supplemented with 5% laked horse blood for Streptococcus spp., Corynebacterium jeikeium and Listeria monocytogenes) was used for aerobic bacteria, with an initial inoculum of approximately 10^5 colony-forming units (CFU)/mL.
# [7] = tested on: Salmonella sp - multi-drug resistant clinical isolate; test: MIC microbroth dilution (CLSI); type: cell-based
# Excerpt: as §1
# [8] = tested on: Salmonella sp - antibiotic-susceptible clinical isolate; test: MIC microbroth dilution (CLSI); type: cell-based
# Excerpt: as §1
# [9] = tested on: Propionibacterium acnes- antibiotic-susceptible clinical isolate; test: MIC microbroth dilution (CLSI); type: cell-based; conditions: P. acnes antibiotic-susceptible
# Method: Supplemented Brucella broth (SBB) was used for the anaerobic strains with an inoculum of approximately 10^6 CFU/mL. SBB is a broth consisting of 1% peptone, 0.5% ‘Lab-lemco’, 1% glucose and 0.5% sodium chloride supplemented with 5 […] vitamin K (both obtained from Sigma Aldrich Ltd.)
# [10] = tested on: Methicillin resistant Staphylococcus epidermidis (MRSE) strain ATCC 27626; conditions: ATCC 27626
# [11] = tested on: Staphylococcus aureus FDA486; test: Murine skin infection model, topical treatment; type: in vivo; conditions: mice; 2% cream; three treatments at three hourly intervals; biopsy three hours after last
# Method: (§2) The skin of mice was infected with Staphylococcus aureus or Streptococcus pyogenes and subsequently given a total of three treatments at three hourly intervals. Three hours after the last treatment, skin biopsies were collected and the number of colony forming units (CFUs) present in the skin sample was determined. Results are shown in FIGS. 1 and 2, expressed as the number of colony forming units per mouse.
# as §2, with “3, 4” for “1”, “5” for “2,”
# [12] = tested on: Streptococcus agalactiae - macrolide-resistant clinical isolate; type: cell-based
# Excerpt: as §1
# [13] = tested on: Staphylococcus aureus - methicillin-resistant clinical isolate; type: cell-based
# Excerpt: as §1
# [14] = tested on: Pseudomonas aeruginosa ATCC27853 - antibiotic-susceptible type strain; type: cell-based
# Excerpt: as §1
# [15] = tested on: Morganella morganii - multi-drug resistant clinical isolate; type: cell-based
# Excerpt: as §1
# [16] = tested on: Enterococcus faecalis vancomycin-resistant (VanA) clinical isolate; type: cell-based
# Excerpt: as §1
# [17] = tested on: Streptococcus pyogenes - Macrolide (M-type) resistance clinical isolate; type: cell-based; conditions: - Macrolide (M-type) resistance clinical isolate
# Excerpt: as §1
# [18] = tested on: Enterobacter sp - antibiotic-susceptible clinical isolate; type: cell-based
# Excerpt: as §1
# [19] = tested on: Staphylococcus haemolyticus - antibiotic susceptible clinical isolate; type: cell-based
# Excerpt: as §1
# [20] = tested on: Escherichia coli ATCC25922 - antibiotic-susceptible type strain; type: cell-based
# Excerpt: as §1
# [21] = tested on: Listeria monocytogenes - antibiotic-susceptible clinical isolate; type: cell-based
# Excerpt: as §1
# [22] = tested on: Staphylococcus aureus ATCC 43300 - methicillin-resistant control strain; type: cell-based
# Excerpt: as §1
# [23] = tested on: Enterococcus faecalis vancomycin-resistant (VanB) clinical isolate; type: cell-based
# Excerpt: as §1
# [24] = tested on: Stenotrophomonas maltophilia - antibiotic-susceptible clinical isolate; type: cell-based
# Excerpt: as §1
# [25] = tested on: Corynebacterium jeikeium - multi-drug resistant clinical isolate; type: cell-based
# Excerpt: as §1
# [26] = tested on: Pseudomonas aeruginosa - multi-drug resistant clinical isolate; type: cell-based
# Excerpt: as §1
# [27] = tested on: EMRSA16 Staphylococcus aureus (MRSA) - SSCmec type 2; type: cell-based; conditions: EMRSA16 - SSCmec type 2
# Excerpt: as §1
# [28] = tested on: Group G Streptococcus - antibiotic-susceptible clinical isolate; type: cell-based
# Excerpt: as §1
# [29] = tested on: Group C Streptococcus - antibiotic-susceptible clinical isolate; type: cell-based
# Excerpt: as §1
# [30] = tested on: EMRSA15 Staphylococcus aureus (MRSA) - SSCmec type 4; type: cell-based; conditions: EMRSA15 - SSCmec type 4
# Excerpt: as §1
# S. pyogenes = conditions: Table 5
# P. aeruginosa = conditions: Table 5
smiles,measurement,setting,value
CCCCCCNC(=O)[C@H](CCCNC(=N)N)NC(=O)[C@H](Cc1c(C(C)(C)C)[nH]c2c(C(C)(C)C)cc(C(C)(C)C)cc12)NC(=O)[C@@H](N)CCCNC(=N)N [Compound 8],S. aureus (MIC),[1],2 µg/mL
same,MIC,[2],2 µg/mL
same,MIC,[3],8 µg/mL
same,E. coli (MIC),E. coli,5 µg/mL
same,MIC,[4],4 µg/mL
same,MRSA (MIC),[5],2 µg/mL
same,MIC,[6],4 µg/mL
same,MIC,[7],8 µg/mL
same,MIC,[8],8 µg/mL
same,MIC,[9],4 µg/mL
same,MRSE (MIC),[10],<1 µg/mL
same,number of CFUs in skin biopsy vs controls,[11],more effective at reducing the number of CFUs than the placebo and fucidin or bactroban
same,MIC,[12],8 µg/mL
same,MIC,[13],4 µg/mL
same,MIC,[14],8 µg/mL
same,MIC,[15],8 µg/mL
same,MIC,[16],4 µg/mL
same,MIC,[17],8 µg/mL
same,MIC,[18],8 µg/mL
same,MIC,[19],4 µg/mL
same,MIC,[20],4 µg/mL
same,MIC,[21],8 µg/mL
same,MIC,[22],4 µg/mL
same,MIC,[23],8 µg/mL
same,MIC,[24],4 µg/mL
same,MIC,[25],2 µg/mL
same,MIC,[26],4 µg/mL
same,MIC,[27],4 µg/mL
same,MIC,[28],8 µg/mL
same,MIC,[29],8 µg/mL
same,MIC,[30],4 µg/mL
same,S. pyogenes (MIC),S. pyogenes,2 µg/mL
same,P. aeruginosa (MIC),P. aeruginosa,5 µg/mL
